Laboratory results reported in PubChem BioAssay AID248 (DTP/NCI, 2004).
Values joined by “and” are separate entries in the source; they are usually repeats but may differ in a detail not shown here. Identical values can stand only once. Inconclusive results and toxic doses are left out. No stated cut-off is given here; in the data, active means T/C of 150% or more; inactive means T/C below 125%.

System: L1210 leukemia ip in BDF1 mice, survival T/C
Experiment: NCI In Vivo Anticancer Drug Screen. Data for tumor model L1210 Leukemia (intraperitoneal) in B6D2F1 (BDF1) mice
Conditions: endpoint: mean survival time, higher = longer survival
Outline: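 Value reflects the ratio of survival in compound-treated mice to survival in vehicle-treated controls, with both groups carrying the same transplanted tumor.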

[1] = dose: 25.0 mg/kg/injection, schedule: Q01DX009 (ip), vehicle: saline
[2] = dose: 100.0 mg/kg/injection, schedule: Q04DX003 (ip), vehicle: Klucel (hydroxypropylcellulose) (HPC)
[3] = dose: 200.0 mg/kg/injection, schedule: Q04DX003 (ip), vehicle: Klucel (hydroxypropylcellulose) (HPC)
[4] = dose: 400.0 mg/kg/injection, schedule: Q04DX003 (ip), vehicle: Klucel (hydroxypropylcellulose) (HPC)
[5] = dose: 100.0 mg/kg/injection, schedule: Q04DX002 (ip), vehicle: Klucel (hydroxypropylcellulose) (HPC)
[6] = dose: 200.0 mg/kg/injection, schedule: Q04DX002 (ip), vehicle: Klucel (hydroxypropylcellulose) (HPC)
[7] = dose: 400.0 mg/kg/injection, schedule: Q04DX002 (ip), vehicle: Klucel (hydroxypropylcellulose) (HPC)
[8] = dose: 100.0 mg/kg/injection, schedule: Q01DX001 (ip), vehicle: carboxymethylcellulose (CMC)
[9] = dose: 200.0 mg/kg/injection, schedule: Q01DX001 (ip), vehicle: carboxymethylcellulose (CMC)
[10] = dose: 400.0 mg/kg/injection, schedule: Q01DX001 (ip), vehicle: carboxymethylcellulose (CMC)
[11] = dose: 75.0 mg/kg/injection, schedule: Q01DX001 (ip), vehicle: saline
[12] = dose: 150.0 mg/kg/injection, schedule: Q01DX001 (ip), vehicle: saline
[13] = dose: 100.0 mg/kg/injection, schedule: Q04DX002 (ip), vehicle: saline with Tween-80
[14] = dose: 100.0 mg/kg/injection, schedule: Q01DX009 (ip), vehicle: Klucel (hydroxypropylcellulose) (HPC)
[15] = dose: 200.0 mg/kg/injection, schedule: Q01DX009 (ip), vehicle: Klucel (hydroxypropylcellulose) (HPC)
[16] = dose: 400.0 mg/kg/injection, schedule: Q01DX009 (ip), vehicle: Klucel (hydroxypropylcellulose) (HPC)
[17] = dose: 100.0 mg/kg/injection, schedule: Q01DX001 (ip), vehicle: saline
[18] = dose: 200.0 mg/kg/injection, schedule: Q01DX001 (ip), vehicle: saline
[19] = dose: 400.0 mg/kg/injection, schedule: Q01DX001 (ip), vehicle: saline
[20] = dose: 50.0 mg/kg/injection, schedule: Q01DX001 (ip), vehicle: saline

Measured: T/C

O=C(Nc1ccc(Cl)c(Cl)c1)Nc1c(Oc2ccc(Cl)c(Cl)c2)ccc(Cl)c1S(=O)(=O)O
inactive: dose: 6.25 mg/kg/injection, schedule: Q01DX009 (ip), vehicle: saline 94 % of control | dose: 12.5 mg/kg/injection, schedule: Q01DX009 (ip), vehicle: saline 93 % of control | [1] 96 % of control

CCCCCCCCCCCCCCCCCCNC(=S)N(C)C
inactive: [2] 89 % of control | [3] 86 % of control | [4] 89 % of control

CCOC(=O)COc1cc([N+](=O)[O-])c(Cl)cc1Cl
inactive: [5] 98 % of control | [6] 98 % of control | [7] 98 % of control

C/C(=C\CN1C(=O)c2ccccc2C1=O)CCC(=O)O
inactive: [1] 109 % of control | dose: 50.0 mg/kg/injection, schedule: Q01DX009 (ip), vehicle: saline 101 % of control | dose: 100.0 mg/kg/injection, schedule: Q01DX009 (ip), vehicle: saline 109 % of control | dose: 200.0 mg/kg/injection, schedule: Q01DX009 (ip), vehicle: saline 111 % of control | dose: 400.0 mg/kg/injection, schedule: Q01DX009 (ip), vehicle: saline 106 % of control

CCc1ccc(NC(=O)c2ccc(Cl)cc2Cl)cc1
inactive: [5] 97 % of control | [6] 87 % of control | [7] 91 % of control

OC(c1nc2ccc(Cl)cc2[nH]1)C(O)C(O)C(O)c1nc2ccc(Cl)cc2[nH]1 (stereo unspecified)
inactive: [8] 90 % of control | [9] 101 % of control | [10] 103 % of control

N#CC1(C#N)CC=CCC1(C#N)C#N
inactive: dose: 12.5 mg/kg/injection, schedule: Q01DX009 (ip), vehicle: other 92 % of control | dose: 25.0 mg/kg/injection, schedule: Q01DX009 (ip), vehicle: other 87 % of control

CCOC(=O)C(=N\Nc1cc(C)ccc1C)/C(C)=N\NC(N)=S
inactive: [11] 87 % of control | [12] 97 % of control | dose: 300.0 mg/kg/injection, schedule: Q01DX001 (ip), vehicle: saline 97 % of control

C=C(C)CC(N)Cc1ccccc1 (stereo unspecified)
inactive: dose: 50.0 mg/kg/injection, schedule: Q04DX002 (ip), vehicle: saline with Tween-80 89 % of control | [13] 95 % of control and 103 % of control

Nc1cc2c(cc1I)-c1ccc(Br)cc1C2
inactive: [8] 102 % of control | [9] 107 % of control | [10] 98 % of control

COc1ccc(OCCO)cc1
inactive: [14] 95 % of control | [5] 96 % of control | [15] 98 % of control | [6] 93 % of control | [16] 103 % of control | [7] 100 % of control

Cc1ccc(S(=O)(=O)NC(N)=NCCCC(NC(=O)OC(C)(C)C)C(=O)O)cc1 (stereo unspecified)
inactive: dose: 100.0 mg/kg/injection, schedule: Q01DX009 (ip), vehicle: saline with Tween-80 89 % of control | dose: 200.0 mg/kg/injection, schedule: Q01DX009 (ip), vehicle: saline with Tween-80 86 % of control | dose: 400.0 mg/kg/injection, schedule: Q01DX009 (ip), vehicle: saline with Tween-80 86 % of control

O=[N+]([O-])c1ccc(Oc2cccc(Cl)c2)c(Cl)c1
inactive: [17] 112 % of control | [18] 109 % of control | [19] 105 % of control

CCCP(=S)(CCC)Oc1ccc([N+](=O)[O-])cc1
inactive: [11] 95 % of control | [12] 98 % of control

CC1Cn2ccc(=O)nc2S1 (stereo unspecified)
inactive: [20] 112 % of control | [17] 110 % of control | [18] 105 % of control

Cc1cccc(NC(=O)N(O)C2(C#N)CCCCC2)c1
inactive: [17] 93 % of control | [18] 96 % of control | [19] 98 % of control

CCC(C)CCC(C)C1CCC2C3CCC4C=C(OC(C)=O)CCC4(C)C3CCC12C (stereo unspecified)
inactive: [13] 103 % of control | dose: 200.0 mg/kg/injection, schedule: Q04DX002 (ip), vehicle: saline with Tween-80 98 % of control | dose: 400.0 mg/kg/injection, schedule: Q04DX002 (ip), vehicle: saline with Tween-80 98 % of control

Clc1ccc(/C=N/c2ccccn2)cc1
inactive: [17] 102 % of control | [18] 102 % of control | [19] 100 % of control

COC(=O)C1CN(Cc2ccccc2)C(=O)C1=O (stereo unspecified)
inactive: [20] 100 % of control | [17] 100 % of control | [18] 90 % of control | [19] 96 % of control

Cc1ccccc1NC(=O)C1CCCC1=O (stereo unspecified)
inactive: [20] 101 % of control | [17] 103 % of control | [19] 109 % of control

Cc1ccc(C(C)C)c2sc(=N)oc12
inactive: [2] 104 % of control | [3] 103 % of control | [4] 98 % of control

O=C(Oc1ccc([N+](=O)[O-])cc1)c1cccc(S(=O)(=O)F)c1
inactive: [8] 93 % of control and 102 % of control | dose: 100.0 mg/kg/injection, schedule: Q01DX009 (ip), vehicle: carboxymethylcellulose (CMC) 103 % of control and 110 % of control | dose: 100.0 mg/kg/injection, schedule: Q04DX003 (ip), vehicle: carboxymethylcellulose (CMC) 104 % of control | [9] 98 % of control and 101 % of control | dose: 200.0 mg/kg/injection, schedule: Q01DX009 (ip), vehicle: carboxymethylcellulose (CMC) 92 % of control and 94 % of control | dose: 200.0 mg/kg/injection, schedule: Q04DX003 (ip), vehicle: carboxymethylcellulose (CMC) 102 % of control and 90 % of control | [10] 98 % of control and 101 % of control | dose: 400.0 mg/kg/injection, schedule: Q01DX009 (ip), vehicle: carboxymethylcellulose (CMC) 92 % of control | dose: 400.0 mg/kg/injection, schedule: Q04DX003 (ip), vehicle: carboxymethylcellulose (CMC) 96 % of control and 90 % of control

Clc1ccc(Cl)nn1
inactive: dose: 100.0 mg/kg/injection, schedule: Q04DX002 (ip), vehicle: saline 102 % of control | dose: 200.0 mg/kg/injection, schedule: Q04DX002 (ip), vehicle: saline 87 % of control | dose: 400.0 mg/kg/injection, schedule: Q04DX002 (ip), vehicle: saline 87 % of control

O=S(=O)(O)CCC(O)S(=O)(=O)O (stereo unspecified)
inactive: [5] 98 % of control | [6] 92 % of control | [7] 92 % of control

Cc1cc(OC(=O)Nc2ccc(F)c([N+](=O)[O-])c2)cc(C)c1Cl
inactive: [14] 101 % of control | [15] 93 % of control | [16] 95 % of control

CCOC(=O)c1c(C)c(Br)c(O)c(Br)c1O
inactive: [17] 98 % of control | dose: 100.0 mg/kg/injection, schedule: Q04DX003 (ip), vehicle: other 86 % of control | [18] 91 % of control | dose: 200.0 mg/kg/injection, schedule: Q04DX003 (ip), vehicle: other 100 % of control | [19] 103 % of control | dose: 400.0 mg/kg/injection, schedule: Q04DX003 (ip), vehicle: other 106 % of control

CCC(=O)OC1(c2ccccc2)CCN(CCC(O)c2ccco2)CC1 (stereo unspecified)
inactive: dose: 40.0 mg/kg/injection, schedule: Q01DX009 (ip), vehicle: Klucel (hydroxypropylcellulose) (HPC) 97 % of control | dose: 80.0 mg/kg/injection, schedule: Q01DX009 (ip), vehicle: Klucel (hydroxypropylcellulose) (HPC) 98 % of control | dose: 160.0 mg/kg/injection, schedule: Q01DX009 (ip), vehicle: Klucel (hydroxypropylcellulose) (HPC) 98 % of control

CC(=O)OCCSc1ccc(C)cc1
inactive: [5] 100 % of control | [6] 103 % of control | [7] 100 % of control
